Reference: patent US20100184811A1, “ISONIAZID MEDIATED HEALING OF WOUNDS AND ULCERS” (priority 2006, published 2010)
“Also recorded” adds a separate entry of the source.

How the values were obtained:
ischemic wounds = assay: Ischemic cutaneous wound healing in a validated rat model (dorsal ischemic skin flap); type: in vivo, Male Sprague-Dawley rats; conditions: 10 mg/kg i.p. b.i.d., 14 days; 8 mm full-thickness wound in ischemic flap; p=0.014
Description: The compounds were masked to the investigators. The first dose was given directly after wounding.
Results are expressed as mean±SD or mean±SEM. Wound healing differences among the two groups were calculated as the area under the wound healing curves (FIG. 2A+B) with correction according to Bonferroni (p=0.035). Licox® results were analyzed by the Wilcoxon test.

[1] = test system: non-ischemic cutaneous lesions / non-TB chronic wounds; conditions: cited from earlier work
[2] = Tolerability and body weight in the rat wound model
Description: Rats were anesthetized by intraperitoneal (i.p.) injection of 100 mg/kg ketamine (Parke-Davis, Berlin, Germany) and 15 mg/kg xylazin (Bayer, Leverkusen, Germany). A standardized pedunculated dorsal ischemic skin flap (3 cm×7 cm) was lifted, replaced, and fixed with metal clips. Two full-thickness wounds were made using punch biopsies (8 mm diameter), one in the ischemic flap region and one non-ischemic outside the flap in the neck.
To the control group, comprising 10 rats, 10 ml/kg of sterile isotonic saline was administered. The compounds were masked to the investigators. The first dose was given directly after wounding. Wounds were traced (outer margins) on OpSite* Flexigrid* (Smith & Nephew) 30 minutes after wounding day 0 and after dressing (Hydrosorb, Hartmann) removal and wound cleansing on subsequent days (Table I). On post-wounding day 2, intracutaneous oxygen tensions were measured 1 hour after administration of compounds with Licox® (Integra LifeSciences Corporation) Clark type probe under full anesthesia. The Licox® probe was positioned at the wound edges using a Venflon catheter (FIG. 1).

Q: Which results are given for `NNC(=O)c1ccncc1` [Isoniazid, pyridine-4-carbohydrazide]?
A: Healing of ischemic wounds compared with the control (area under the wound healing curves) (ischemic wounds): promoted healing of the ischemic wounds; also recorded: stimulated ischemic wound healing; Effect on healing of a variety of non-TB chronic wounds ([1]; case report, Martyn and Campell (1963)): stimulating effects; Effect on ischemic tissue ([1]; conclusion of Martyn and Campell (1963)): little effect on ischemic tissue; Healing of coincidental non-ischemic cutaneous lesions ([1]; tuberculosis and non-tuberculosis patients treated with isoniazid (Potter and Taylor, 1969)): healed; Body weight difference among groups ([2]; before operation or after 14 days of treatment): did not differ significantly; Body weights before operation (Mean ± SD) ([2]; before operation, n=10): 360 ± 8 gram; Rats that died ([2]; group of 10 rats, death 5 days after operation): one; Body weights on post-wounding day 14 (Mean ± SD) ([2]; post operative day 14, 10 mg/kg i.p. b.i.d., n=9): 341 ± 12 gram
